Measurements from publication PMC8655892 (ACS Omega, 2021).
Counter-ions that a name gives are not always drawn.

Assays:
[1] = Metabolic stability in human liver microsomes; type: in vitro ADME; conditions: 5 µM, 0.5 mg/mL microsomal protein, NADPH, up to 30 min
[2] = Metabolic stability in mouse liver microsomes; type: in vitro ADME; conditions: 5 µM, 0.5 mg/mL microsomal protein, NADPH, up to 30 min
[3] = In vivo pharmacokinetics after oral and IV administration; set-up: species or system Balb/C mice
[4] = Stability of rottlerin in plasma under storage conditions; type: in vitro ADME, mice; conditions: n=4
[5] = Plasma stability in mice plasma; conditions: 0–2 h, 10 µM, 37°C
[6] = Plasma protein binding by rapid equilibrium dialysis; conditions: mouse
[7] = intravenous, 1 mg/kg, Balb/C mice
[8] = male, Balb/C, mouse, plasma, iv, 1 mg/kg
[9] = male, Balb/C, mouse, plasma, po, 4 mg/kg

With `CC(=O)c1c(O)c(C)c(O)c(Cc2c(O)c3c(c(C(=O)/C=C/c4ccccc4)c2O)OC(C)(C)C=C3)c1O` [Rottlerin] the “remained intact in HLMs” value [1] was “over 91%”, the “remained intact in MLMs” value [2] was over 75% and the Cl [3, 7] was 5.83 ± 0.5 mL/min/kg. For the same molecule, the T1/2 [3, 7] was 2.9 ± 0.8 h, the Vd [3, 7] was 1.4 ± 0.4 L/kg and the Cl ([3]; intravenous, 1 mg/kg, Balb/C mice, listed as rottlerin) was at most 17 mL/min/kg. The “exposure (plasma levels)” value ([3]; iv, 1 mg/kg, Balb/C mice) was about 3000 ng·h/mL, the AUC(0-inf) [3, 8] was 2920 ± 292 ng·h/mL and the AUC(0-t) [3, 8] was 2850 ± 311 ng·h/mL. For the same molecule, the C0 [3, 8] was 2110 ± 359 ng/mL, the half-life ([3]; male, Balb/C, mouse, plasma, iv, 1 mg/kg, T1/2, intravenous, Balb/C mice) was over 2 h and the AUC(0-inf) [3, 9] was 4090 ± 348 ng·h/mL. For the same molecule, the AUC(0-t) [3, 9] was 4050 ± 360 ng·h/mL, the Cmax [3, 9] was 660 ± 60 ng/mL and the half-life ([3]; male, Balb/C, mouse, plasma, po, 4 mg/kg, T1/2, oral, Balb/C mice) was over 2 h. The Tmax ([3]; male, Balb/C, mouse, plasma, po, 4 mg/kg, Tmax, Balb/C mice) was about 2.4 h, the oral bioavailability ([3]; oral 4 mg/kg vs IV 1 mg/kg, Balb/C mice) was 35–36% and the Cl ([3]; oral, 4 mg/kg, Balb/C mice) was 16.8 ± 1.3 mL/min/kg. For the same molecule, the T1/2 ([3]; oral, 4 mg/kg, Balb/C mice) was 2.7 ± 0.4 h, the Vd ([3]; oral, 4 mg/kg, Balb/C mice) was 3.8 ± 0.6 L/kg and the “exposure (plasma levels)” value ([3]; oral, 4 mg/kg, Balb/C mice) was “around 4 μg h/mL”. For the same molecule, the Cl ([3]; oral, 4 mg/kg, Balb/C mice, listed as rottlerin) was at most 17 mL/min/kg, the “stability study accuracy (%)” value ([4]; autosampler: processed samples, 4 °C, 24 h, HQC 800 ng/mL) was 92.89% and the “stability study accuracy (%)” value ([4]; autosampler: processed samples, 4 °C, 24 h, LQC 5.7 ng/mL) was 90.04%. The “stability study accuracy (%)” value ([4]; freeze–thaw: three cycles, −20 °C / room temperature, HQC 800 ng/mL) was 91.69%, the “stability study accuracy (%)” value ([4]; freeze–thaw: three cycles, −20 °C / room temperature, LQC 5.7 ng/mL) was 88.60% and the “degradation in mice plasma” value [5] was under 5%.
With `CNC(=C[N+](=O)[O-])NCCSCc1ccc(CN(C)C)o1` [ranitidine, ranitidine hydrochloride] the fraction unbound at 4 h, 5 µM [6] was 0.793.
